Measurements reported in article PMC11491004, “CHF6523 data suggest that the phosphoinositide 3-kinase delta isoform is not a suitable target for the management of COPD” (Respiratory Research, 2024).

Legend:
in-vivo guinea pig model = assay: In-vivo guinea pig cough model
proteins in sputum = assay: Tandem mass tag mass spectrometry proteomics in sputum; assay type: in vivo, human; settings: FDR < 0.05, mixed effect modelling
Method: Sputum samples were weighed and solubilised with sodium dodecyl sulphate and dithiothreitol, and were incubated for 10 min at 95°C. First, quantification was performed by the Bradford Assay, with 50 μg of each sample digested with Trypsin following the S-trap micro protocol; 25 μg of each sample was dried, and reconstituted with TMT10plex (Thermo Scientific) following the manufacturer’s instructions. The 98 samples were divided into eleven TMT10plexes groups; 10 μg of each sample were combined, taking into account the peptide quantification, and after combining samples were desalted.
Samples were analysed with a Thermo Scientific Dionex Ultimate 3000 nano RSLC coupled to a Orbitrap Fusion Lumos mass spectrometer (Thermo Scientific) fitted with nanoESI source. Peptides were separated on a EasySpray (75 µm x 500 mm, 2 μm, 100Å) (Thermo Scientific) heated to 40°C at 300 nL/min. The mass spectrometer was operated in data-dependent acquisition (DDA) mode. […] For the MS3 analyses for TMT quantification, multiple fragment ions from the previous MS2 scan (SPS ions) were co- selected and fragmented by HCD.
Database searches were performed with Proteome Discoverer v2.4 software (Thermo Scientific) using Sequest HT search engine and UniProt Homo Sapiens (2023) and contaminants. […] TMT reporter ions intensities were used for protein quantification. […]

[1] = Parts 1 and 2, single and multiple ascending dose; some mild inhalation-related cough; cited from earlier work
[2] = system: genes in blood and sputum; assay: Transcriptomics (RNA-seq) in blood and sputum; assay type: in vivo, human
Method: PAXgene RNA blood samples and induced sputum samples collected in Trizol were analysed at Almac Diagnostic Services (Craigavon, Northern Ireland, UK). RNA extraction and quality assessment of the PAXGene blood and sputum samples were performed, prior to downstream next generation sequencing (NGS). To minimise any technical variability, samples were randomised into processing batches for RNA extraction and NGS library preparation.
After extraction, all RNA underwent quality assessment. PAXGene RNA samples were assessed using a combination of Nanodrop (quantity) and the Agilent Tapestation (integrity), and Sputum RNA samples were assessed using the Qubit RNA assay (quantity) and Agilent Tapestation (integrity). Nanodrop was used for quantity assessment of RNA extracted from sputum in order to preserve a sample for downstream library preparation input.
Upon successful completion of the quality assessment, samples underwent library preparation using Kapa RNA Hyperprep with Riboerase kit. PAXGene Blood RNA samples were also treated with globin depletion oligos. Following library preparation, all generated libraries underwent quality assessment (quantification via Quant-iT dsDNA high-sensitivity assay, and fragment size assessment via the Agilent Tapestation) before being loaded on to a NovaSeq 6000 and sequenced with a total read length of 2x76bp, to a read budget of 50 million paired end reads (total 100 million reads) per sample. Processing control samples were included in the processing batch. Upon completion of sequencing, the quality of sequencing was assessed for the following parameters: clusters passing filter, Q30 scores, error rate, cluster density and read distribution.
Raw sequence data in FASTQ format were subject to a number of quality control assessment steps hosted on the DNAnexus cloud platform. Basic sequencing metrics such as GC content were calculated from unaligned reads using FastQC. Potential ribosomal RNA (rRNA) contamination was assessed using the Burrows-Wheeler Aligner (BWA) and samtools flagstat to determine the number of reads aligning to a ribosomal RNA (rRNA) sequence database. Read alignment to the human reference genome GRCh38 was then performed using StarAlign, with outputs used to calculate post-alignment quality control (QC) metrics such as duplication rate, calculated using Picard MarkDuplicates and a housekeeping coverage metric using a custom script. […] Both pre- and post alignment QC metrics were then reviewed to check for potential problems originating from the sequencing run or starting library material.
The aim was to identify genes that were differentially expressed in response to treatment with CHF6523 from blood and sputum samples.
The ANCOVA model was specified as change from pre-dose to post-dose expression as dependent variable. The independent variables were treatment (reference: placebo), patient, period, and pre-dose expression.
Functional enrichment was performed on those differentially expressed gene lists that had at least 20 genes with FDR<0.05 using ToppFun enrichment on the ToppGene website (https://toppgene.cchmc.org/enrichment.jsp, accessed 05 May 2023 [4]). The background of the enrichment used were those genes that were available in the original datamatrix.

SMILES: C[C@@H](c1oc(=O)c2ccccc2c1-c1cccc(CN2CCN(C)CC2)c1)n1nc(-c2cncc(O)c2)c2c(N)ncnc21 [CHF6523]
- Coughing in guinea pig, formulation with alternative salts (in-vivo guinea pig model; formulation changed to use alternative salts): ineffective in influencing cough
- Coughing in guinea pig (in-vivo guinea pig model; in-vivo guinea pig model, salt form used in the study): trigger coughing
- Proteins significantly modulated by treatment, of the 413 evaluated (proteins in sputum): only BPI fold-containing family B member 1 (BPIFB1) was significantly modulated by treatment
- Safety profile in healthy volunteers [1]: acceptable safety profile
- Differentially expressed genes in blood ([2]; blood, RNA-seq, 24 patients): No differentially expressed genes
- |log2FC| of the six genes with |log2FC| >1 ([2]; sputum): 1.019–1.067
- TLR1 log2FC ([2]; sputum, FDR = 0.0155): 0.71
- TLR10 log2FC ([2]; sputum, FDR = 0.0418): 0.48
- TLR6 log2FC ([2]; sputum, FDR = 0.0451): 0.52
- Genes significantly differentially expressed in sputum ([2]; sputum, RNA-seq, FDR < 0.05, more than 38,000 genes evaluated): 126 genes
- Differentially expressed genes in sputum that were upregulated ([2]; sputum, of 126): 119 genes
